# From PubChem BioAssay (NCI)
#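 Exposure lasted 48 hours, with cells grown in 96-well plates and compounds tested at five concentrations. Here, GI50 denotes the concentration required for 50% inhibition of growth. TGI marks complete inhibition of growth.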
# Tests used:
# Assay in all cases: growth of human tumour cells (NCI), 48 h
# NCI/ADR-RES ovarian = system: NCI/ADR-RES ovarian
# OVCAR-4 ovarian = system: OVCAR-4 ovarian
# MALME-3M melanoma = system: MALME-3M melanoma
# SW-620 colon = system: SW-620 colon
# NCI-H460 lung = system: NCI-H460 lung
# SN12C renal = system: SN12C renal
# CAKI-1 renal = system: CAKI-1 renal
# MDA-MB-435 = system: MDA-MB-435
# RXF 393 renal = system: RXF 393 renal
# SNB-75 CNS = system: SNB-75 CNS
# OVCAR-8 ovarian = system: OVCAR-8 ovarian
# NCI-H226 lung = system: NCI-H226 lung
# 786-0 renal = system: 786-0 renal
# LOX IMVI melanoma = system: LOX IMVI melanoma
# RPMI-8226 leukemia = system: RPMI-8226 leukemia
# UO-31 renal = system: UO-31 renal
# CCRF-CEM leukemia = system: CCRF-CEM leukemia
# SK-MEL-2 melanoma = system: SK-MEL-2 melanoma
# SK-OV-3 ovarian = system: SK-OV-3 ovarian
# SF-295 CNS = system: SF-295 CNS
# KM12 colon = system: KM12 colon
# EKVX NSCLC = system: EKVX NSCLC
# TK-10 renal = system: TK-10 renal
# UACC-257 melanoma = system: UACC-257 melanoma
# A498 renal = system: A498 renal
# T-47D breast = system: T-47D breast
# NCI-H522 lung = system: NCI-H522 lung
# BT-549 breast = system: BT-549 breast
# U251 CNS = system: U251 CNS
# HT29 colon = system: HT29 colon
# SF-539 CNS = system: SF-539 CNS
# SR leukemia = system: SR leukemia
# HCC-2998 colon = system: HCC-2998 colon
# K-562 leukemia = system: K-562 leukemia
# A549 NSCLC = system: A549 NSCLC
# SK-MEL-28 melanoma = system: SK-MEL-28 melanoma
# MDA-MB-231 breast = system: MDA-MB-231 breast
# HOP-92 NSCLC = system: HOP-92 NSCLC
# OVCAR-5 ovarian = system: OVCAR-5 ovarian
# UACC-62 melanoma = system: UACC-62 melanoma
# SF-268 CNS = system: SF-268 CNS
# HOP-62 NSCLC = system: HOP-62 NSCLC
# IGROV1 ovarian = system: IGROV1 ovarian
# PC-3 prostate = system: PC-3 prostate
# SNB-19 CNS = system: SNB-19 CNS
# HS 578T breast = system: HS 578T breast
# COLO 205 colon = system: COLO 205 colon
# MCF7 breast = system: MCF7 breast
# DU-145 prostate = system: DU-145 prostate
# SK-MEL-5 melanoma = system: SK-MEL-5 melanoma
# OVCAR-3 ovarian = system: OVCAR-3 ovarian
# HCT-15 colon = system: HCT-15 colon
# ACHN renal = system: ACHN renal
# M14 melanoma = system: M14 melanoma
# HL-60(TB) leukemia = system: HL-60(TB) leukemia
# HCT-116 colon = system: HCT-116 colon
# MOLT-4 leukemia = system: MOLT-4 leukemia
# NCI-H23 lung = system: NCI-H23 lung
smiles,measurement,setting,value
CSc1nc2c(c(=O)[nH]1)N=C1c3ccccc3C(=O)C1C(c1ccc(F)cc1)N2 (stereo unspecified),GI50,NCI/ADR-RES ovarian,6.42 µM
same,TGI,NCI/ADR-RES ovarian,33.1 µM
same,GI50,OVCAR-4 ovarian,15.4 µM
same,TGI,OVCAR-4 ovarian,67 µM
same,GI50,MALME-3M melanoma,19.6 µM
same,TGI,MALME-3M melanoma,> 100 µM
same,GI50,SW-620 colon,4.48 µM
same,TGI,SW-620 colon,70.7 µM
same,GI50,NCI-H460 lung,5.1 µM
same,TGI,NCI-H460 lung,38.7 µM
same,GI50,SN12C renal,28.4 µM
same,TGI,SN12C renal,> 100 µM
same,GI50,CAKI-1 renal,3.31 µM
same,TGI,CAKI-1 renal,35.6 µM
same,GI50,MDA-MB-435,1.65 µM
same,TGI,MDA-MB-435,8.76 µM
same,GI50,RXF 393 renal,14.5 µM
same,TGI,RXF 393 renal,36.6 µM
same,GI50,SNB-75 CNS,1.46 µM
same,TGI,SNB-75 CNS,14.9 µM
same,GI50,OVCAR-8 ovarian,13.1 µM
same,TGI,OVCAR-8 ovarian,35.4 µM
same,GI50,NCI-H226 lung,15.3 µM
same,TGI,NCI-H226 lung,45.6 µM
same,GI50,786-0 renal,12.4 µM
same,TGI,786-0 renal,27.3 µM
same,GI50,LOX IMVI melanoma,8.78 µM
same,TGI,LOX IMVI melanoma,30 µM
same,GI50,RPMI-8226 leukemia,4.2 µM
same,TGI,RPMI-8226 leukemia,> 100 µM
same,GI50,UO-31 renal,16.3 µM
same,TGI,UO-31 renal,> 100 µM
same,GI50,CCRF-CEM leukemia,8.16 µM
same,TGI,CCRF-CEM leukemia,> 100 µM
same,GI50,SK-MEL-2 melanoma,49.3 µM
same,TGI,SK-MEL-2 melanoma,> 100 µM
same,GI50,SK-OV-3 ovarian,14.1 µM
same,TGI,SK-OV-3 ovarian,50.4 µM
same,GI50,SF-295 CNS,3.67 µM
same,TGI,SF-295 CNS,34.3 µM
same,GI50,KM12 colon,3.77 µM
same,TGI,KM12 colon,15.6 µM
same,GI50,EKVX NSCLC,18.2 µM
same,TGI,EKVX NSCLC,> 100 µM
same,GI50,TK-10 renal,12.9 µM
same,TGI,TK-10 renal,37.6 µM
same,GI50,UACC-257 melanoma,26 µM
same,TGI,UACC-257 melanoma,> 100 µM
same,GI50,A498 renal,4.88 µM
same,TGI,A498 renal,20.5 µM
same,GI50,T-47D breast,14.2 µM
same,TGI,T-47D breast,94.6 µM
same,GI50,NCI-H522 lung,3.17 µM
same,TGI,NCI-H522 lung,37.9 µM
same,GI50,BT-549 breast,8.5 µM
same,TGI,BT-549 breast,41.2 µM
same,GI50,U251 CNS,5.43 µM
same,TGI,U251 CNS,19.3 µM
same,GI50,HT29 colon,3.36 µM
same,TGI,HT29 colon,12.3 µM
same,GI50,SF-539 CNS,8.9 µM
same,TGI,SF-539 CNS,29.4 µM
same,GI50,SR leukemia,6.31 µM
same,TGI,SR leukemia,> 100 µM
same,GI50,HCC-2998 colon,12.2 µM
same,TGI,HCC-2998 colon,30.5 µM
same,GI50,K-562 leukemia,4.05 µM
same,TGI,K-562 leukemia,> 100 µM
same,GI50,A549 NSCLC,12.6 µM
same,TGI,A549 NSCLC,> 100 µM
same,GI50,SK-MEL-28 melanoma,9.03 µM
same,TGI,SK-MEL-28 melanoma,62.4 µM
same,GI50,MDA-MB-231 breast,12.6 µM
same,TGI,MDA-MB-231 breast,> 100 µM
same,GI50,HOP-92 NSCLC,9.52 µM
same,TGI,HOP-92 NSCLC,48.8 µM
same,GI50,OVCAR-5 ovarian,17.7 µM
same,TGI,OVCAR-5 ovarian,41.1 µM
same,GI50,UACC-62 melanoma,3.04 µM
same,TGI,UACC-62 melanoma,48.9 µM
same,GI50,SF-268 CNS,12.7 µM
same,TGI,SF-268 CNS,49.9 µM
same,GI50,HOP-62 NSCLC,11.9 µM
same,TGI,HOP-62 NSCLC,33.7 µM
same,GI50,IGROV1 ovarian,11.3 µM
same,TGI,IGROV1 ovarian,> 100 µM
same,GI50,PC-3 prostate,7.72 µM
same,TGI,PC-3 prostate,95.2 µM
same,GI50,SNB-19 CNS,15.9 µM
same,TGI,SNB-19 CNS,66 µM
same,GI50,HS 578T breast,5.85 µM
same,TGI,HS 578T breast,43.6 µM
same,GI50,COLO 205 colon,13 µM
same,TGI,COLO 205 colon,> 100 µM
same,GI50,MCF7 breast,5.18 µM
same,TGI,MCF7 breast,62.4 µM
same,GI50,DU-145 prostate,16.2 µM
same,TGI,DU-145 prostate,42.2 µM
same,GI50,SK-MEL-5 melanoma,6.13 µM
same,TGI,SK-MEL-5 melanoma,66.6 µM
same,GI50,OVCAR-3 ovarian,3.38 µM
same,TGI,OVCAR-3 ovarian,12.5 µM
same,GI50,HCT-15 colon,4.57 µM
same,TGI,HCT-15 colon,> 100 µM
same,GI50,ACHN renal,11.6 µM
same,TGI,ACHN renal,36.4 µM
same,GI50,M14 melanoma,6.29 µM
same,TGI,M14 melanoma,> 100 µM
same,GI50,HL-60(TB) leukemia,6.54 µM
same,TGI,HL-60(TB) leukemia,> 100 µM
same,GI50,HCT-116 colon,7.23 µM
same,TGI,HCT-116 colon,19.9 µM
same,GI50,MOLT-4 leukemia,19.5 µM
same,TGI,MOLT-4 leukemia,> 100 µM
same,GI50,NCI-H23 lung,13.5 µM
same,TGI,NCI-H23 lung,55.9 µM
